IC50 data for 18 compounds are collected here from patent publication US6924302B2, “Substituted triazole diamine derivatives as kinase inhibitors” (Ortho McNeil Pharmaceutical, Inc., priority 2000, dated 2005).

pIC50: −log10 of the molar value. A value given as a limit tells only on which side of the number the result lay.

As a reminder, the pIC50 is the IC50 on a negative log10 scale, so that one unit is a factor of ten.

Common to all, as to type: biochemical
In assay [1] the target is T1, CDK1:Cyclin-B (Homo sapiens, UniProt P06493).
T1 construct: purchased New England Biolabs 6020; host or cells: insect cells
T1 sequence (P06493 whole entry): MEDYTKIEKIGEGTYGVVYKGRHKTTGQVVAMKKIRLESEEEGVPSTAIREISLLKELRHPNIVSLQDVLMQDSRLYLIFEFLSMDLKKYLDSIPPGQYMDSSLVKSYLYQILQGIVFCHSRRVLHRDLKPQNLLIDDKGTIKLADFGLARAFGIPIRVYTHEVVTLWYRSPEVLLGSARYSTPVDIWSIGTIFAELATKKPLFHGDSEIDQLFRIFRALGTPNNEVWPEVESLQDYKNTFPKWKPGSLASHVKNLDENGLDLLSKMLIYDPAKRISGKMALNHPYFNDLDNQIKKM
T1 sequence (P14635 whole entry partner): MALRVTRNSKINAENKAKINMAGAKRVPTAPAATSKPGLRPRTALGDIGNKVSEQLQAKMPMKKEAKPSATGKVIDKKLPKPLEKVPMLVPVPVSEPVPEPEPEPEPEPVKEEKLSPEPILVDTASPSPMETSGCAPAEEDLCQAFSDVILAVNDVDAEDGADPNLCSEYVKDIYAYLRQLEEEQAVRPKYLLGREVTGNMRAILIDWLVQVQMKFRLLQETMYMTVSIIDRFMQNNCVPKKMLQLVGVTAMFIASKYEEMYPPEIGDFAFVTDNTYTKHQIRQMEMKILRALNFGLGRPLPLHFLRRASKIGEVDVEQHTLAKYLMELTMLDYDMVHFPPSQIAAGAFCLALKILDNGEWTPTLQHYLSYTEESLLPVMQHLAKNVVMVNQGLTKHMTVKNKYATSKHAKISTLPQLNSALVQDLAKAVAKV
Put plainly: CDK1 Screening Assay. The settings on record: Table 1; read-out: CDK1 IC50. How it is done: (§1) 70 μL of the kinase reaction mixture was dispensed into the well of a streptavidin coated FlashPlate™ (Cat. # SMP103, NEN, Boston, Mass.). Then 1 μL of test compound stock in 100% DMSO was added to the wells resulting in a final concentration of 1% DMSO in the reaction with a 100 μl final reaction volume. Next, CDK1:Cyclin-B protein was diluted in 50 mM Tris-HCl pH=8.0, 0.1% BSA at a concentration of 1 ng per μL and 30 μl (30 ng enzyme per test well) was added to each well to initiate the reaction. The reaction was incubated for one hour at 30° C. At the end of the 1-hour incubation, the reaction was terminated by aspirating the reaction mixture from the plate and washing the wells twice with PBS containing 100 mM EDTA. The histone-H1 biotinylated peptide substrate became immobilized on the Flashplate™ and the incorporation of ^33P-γ-ATP was measured by reading the plate on a scintillation counter. Inhibition of the enzymatic activity of CDK1 was measured by observing a reduced amount of ^33P-γ-ATP incorporated into the immobilized peptide.
Assays to test compound inhibition of other kinases were preformed using methods that measure the amount of phosphorylation of a biotinylated peptide substrate. Biotinylated peptide substrates were selected from the literature as appropriate for the enzyme being evaluated. […] Assay conditions vary slightly for each protein kinase, for example, insulin receptor kinase requires 10 mM MnCl2 for activity and Calmodulin-dependent protein kinase requires calmodulin and 10 mM CaCl2. These assay conditions are known in the art. The reaction mixture was dispensed into the wells of a streptavidin coated Flashplate and 1 μl drug stock in 100% DMSO was added to a 100 μl reaction volume resulting in a final concentration of 1% DMSO on the reaction. Enzyme was diluted in 50 mM Tris-HCl pH=8.0, 0.1% BSA and add to each well. The reaction was incubated for one hour at 30° C. in the presence of compound. After one hour the reaction mix was aspirated from the plate and the plate was washed with PBS containing 100 mM EDTA. The plate was read on a scintillation counter to determine ^33P-γ-ATP incorporated into the immobilized peptide. Test compounds were assayed in duplicate at 8 concentrations [100 uM, 10 uM, 1 uM, 100 nM, 10 nM, 1 nM, 100 pM, 10 pM]. A maximum and minimum signal for the assay was determined on each plate. The IC50 was calculated from the dose response curve of the percent inhibition of the maximum signal in the assay according to the formula [max signal—background/test compound signal—background (100)=% inhibition] by graphing the percent inhibition against the log concentration of test compound. Known inhibitor compounds appropriate for the kinase being assayed were also included on each plate. […]

Assay [2] addresses T2, VEGF-R (vascular endothelial growth factor receptor-2) (Rattus norvegicus, UniProt O08775).
T2 construct: polyhistidine (6xHIS) (N)
The assay is described as follows: VEGF-R Screening Assay. The settings on record: Table 1; read-out: VEGF-R IC50. As for the experimental part: as §1, with “a 100 μL final reaction” for “a 100 μl final reaction”, “volume. Next, soluble rat tyrosine kinase containing an N-terminal 6×HIS tag was diluted” for “volume. Next, CDK1:Cyclin-B protein was diluted”, “concentration of 5 ng per” for “concentration of 1 ng per”, “and 30 μL (150 ng enzyme” for “and 30 μl (30 ng enzyme”, “EDTA. The PLC1 biotinylated peptide” for “EDTA. The histone-H1 biotinylated peptide”, “activity of the VEGF-R was measured” for “activity of CDK1 was measured”
(§2) Assays to test compound inhibition of other kinases were preformed using methods that measure the amount of phosphorylation of a biotinylated peptide substrate. Biotinylated peptide substrates were selected from the literature as appropriate for the enzyme being evaluated. […] Assay conditions vary slightly for each protein kinase, for example, insulin receptor kinase requires 10 mM MnCl2 for activity and Calmodulin-dependent protein kinase requires calmodulin and 10 mM CaCl2. These assay conditions are known in the art. The reaction mixture was dispensed into the wells of a streptavidin coated Flashplate and 1 μl drug stock in 100% DMSO was added to a 100 μl reaction volume resulting in a final concentration of 1% DMSO on the reaction. Enzyme was diluted in 50 mM Tris-HCl pH=8.0, 0.1% BSA and add to each well. The reaction was incubated for one hour at 30° C. in the presence of compound. After one hour the reaction mix was aspirated from the plate and the plate was washed with PBS containing 100 mM EDTA. The plate was read on a scintillation counter to determine ^33P-γ-ATP incorporated into the immobilized peptide. Test compounds were assayed in duplicate at 8 concentrations [100 uM, 10 uM, 1 uM, 100 nM, 10 nM, 1 nM, 100 pM, 10 pM]. A maximum and minimum signal for the assay was determined on each plate. The IC50 was calculated from the dose response curve of the percent inhibition of the maximum signal in the assay according to the formula [max signal—background/test compound signal—background (100)=% inhibition] by graphing the percent inhibition against the log concentration of test compound. Known inhibitor compounds appropriate for the kinase being assayed were also included on each plate.
(§3) CDK2 in complex with cyclin A is commercially available (Upstate Biotech, Lake Placid, N.Y.). The CDK4 complex was composed of a mouse CDK4 protein and a mouse Cyclin D1 protein (The mouse CDK4 protein was genetically fused to an N-terminal Flag-epitope tag and the mouse Cyclin D1 protein was fused with an N-terminal AU-1 epitope tag. The genes encoding these proteins were transferred to commercially available baculoviral vectors. The recombinant CDK4/D1 complex was then made by co-infecting commercially available insect cells with viruses carrying these two constructs). […] ERK-1 protein (Discontinued from Calbiochem). EGFR (epidermal growth factor receptor) is purified from human A431 cell membranes (Sigma, St. Louis, Mo., Cat.# E3641).

In assay [3] the target is T3, HER2 (human epidermal growth factor receptor-2) (Homo sapiens, UniProt P04626).
T3 construct: begins at amino acid 676 followed by the remainder of the HER2 cytoplasmic domain; polyhistidine (N)
T3 sequence (P04626 676-1255 limits assumed): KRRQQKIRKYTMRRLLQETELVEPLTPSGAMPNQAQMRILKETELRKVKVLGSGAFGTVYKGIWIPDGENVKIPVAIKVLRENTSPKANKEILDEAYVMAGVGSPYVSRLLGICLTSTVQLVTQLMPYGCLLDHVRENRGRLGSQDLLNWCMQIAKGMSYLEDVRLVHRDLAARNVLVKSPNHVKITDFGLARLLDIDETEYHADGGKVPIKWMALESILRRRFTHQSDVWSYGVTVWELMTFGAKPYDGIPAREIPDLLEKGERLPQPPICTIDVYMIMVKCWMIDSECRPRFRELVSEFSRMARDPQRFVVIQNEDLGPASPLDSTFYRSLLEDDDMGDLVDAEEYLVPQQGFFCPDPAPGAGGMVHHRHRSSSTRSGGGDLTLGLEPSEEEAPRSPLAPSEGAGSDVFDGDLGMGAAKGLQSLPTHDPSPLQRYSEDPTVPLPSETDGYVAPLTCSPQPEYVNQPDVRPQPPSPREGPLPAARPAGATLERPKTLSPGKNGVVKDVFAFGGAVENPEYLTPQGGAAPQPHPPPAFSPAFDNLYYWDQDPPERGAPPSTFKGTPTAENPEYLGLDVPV
Put plainly: Kinase Selectivity Assay HER2. As to conditions: Table 1; read-out: HER2 IC50. As for the experimental part:
as §2, §3

T2 sequence (O08775 786-1343): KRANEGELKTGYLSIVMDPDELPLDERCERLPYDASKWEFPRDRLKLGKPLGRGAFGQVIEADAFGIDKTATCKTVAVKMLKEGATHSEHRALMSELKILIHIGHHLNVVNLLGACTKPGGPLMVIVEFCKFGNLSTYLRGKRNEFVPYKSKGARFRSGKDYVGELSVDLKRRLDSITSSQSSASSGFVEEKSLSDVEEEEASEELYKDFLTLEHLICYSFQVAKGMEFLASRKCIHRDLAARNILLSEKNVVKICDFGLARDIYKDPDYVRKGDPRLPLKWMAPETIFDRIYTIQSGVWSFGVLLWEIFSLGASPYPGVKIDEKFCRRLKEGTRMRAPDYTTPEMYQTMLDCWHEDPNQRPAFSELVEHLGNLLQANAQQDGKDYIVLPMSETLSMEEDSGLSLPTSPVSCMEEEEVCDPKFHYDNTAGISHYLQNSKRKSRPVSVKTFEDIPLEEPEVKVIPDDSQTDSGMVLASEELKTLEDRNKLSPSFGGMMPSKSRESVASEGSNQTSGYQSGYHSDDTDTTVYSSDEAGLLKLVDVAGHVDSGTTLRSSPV

Take `Nc1nc(Nc2ccc(S(N)(=O)=O)cc2)nn1C(=O)c1cccnc1` [Cpd 28, 4-[[5-amino-1-(3-pyridinylcarbonyl)-1H-1,2,4-triazol-3-yl]amino]-benzenesulfonamide]: the negative logarithm of the IC50 (pIC50) in assay [1] is 6.01; in assay [2], 4.88.

Consider `Nc1nc(Nc2ccc(S(N)(=O)=O)cc2)nn1C(=O)c1ccncc1` [Cpd 29, 4-[[5-amino-1-(4-pyridinylcarbonyl)-1H-1,2,4-triazol-3-yl]amino]-benzenesulfonamide], for which the pIC50 in assay [1] was 4.15; in assay [2], approximately 4.00.

As for `Nc1nc(Nc2ccc(S(N)(=O)=O)cc2)nn1C(=O)c1cc2ccccc2s1` [Cpd 31, 4-[[5-amino-1-(benzo[b]thien-2-ylcarbonyl)-1H-1,2,4-triazol-3-yl]amino]-benzenesulfonamide], the pIC50 in assay [1] is 7.52; in assay [2] it was 7.36.

As for `Cc1nnsc1C(=O)n1nc(Nc2ccc(S(N)(=O)=O)cc2)nc1N` [Cpd 36, 4-[[5-amino-1-[(4-methyl-1,2,3-thiadiazol-5-yl)carbonyl]-1H-1,2,4-triazol-3-yl]amino]-benzenesulfonamide], the values for the pIC50 in assay [1] and in assay [2] were 5.81 and 4.73, respectively.

In the case of `Nc1nc(Nc2ccc(S(N)(=O)=O)cc2)nn1C(=O)c1csnn1` [Cpd 37, 4-[[5-amino-1-(1,2,3-thiadiazol-4-ylcarbonyl)-1H-1,2,4-triazol-3-yl]amino]-benzenesulfonamide], the pIC50 was 4.98 in assay [1] and 4.26 in assay [2].

As to `Nc1nc(Nc2ccc(S(N)(=O)=O)cc2)nn1C(=O)Cc1cccs1` [Cpd 40, 4-[[5-amino-1-(2-thienylacetyl)-1H-1,2,4-triazol-3-yl]amino]-benzenesulfonamide], the negative-log IC50 (pIC50) is 6.71 in assay [1] and 4.96 in assay [2].

Regarding `Nc1nc(Nc2ccc(S(N)(=O)=O)cc2)nn1C(=O)/C=C/c1cccs1` [Cpd 42, 4-[[5-amino-1-[(2E)-1-oxo-3-(2-thienyl)-2-propenyl]-1H-1,2,4-triazol-3-yl]amino]-benzenesulfonamide], the values for the pIC50 in assay [1] and in assay [2] were 6.87 and 6.35, respectively.

Turning to `Nc1nc(Nc2ccc(S(N)(=O)=O)cc2)nn1C(=O)Cc1c(F)cccc1F` [Cpd 43, 4-[[5-amino-1-[(2,6-difluorophenyl)acetyl]-1H-1,2,4-triazol-3-yl]amino]-benzenesulfonamide], the pIC50 in assay [1] is 7.06; in assay [2], 6.20.

`Nc1nc(Nc2ccc(S(N)(=O)=O)cc2)nn1C(=O)/C=C/c1c(F)cccc1F` [Cpd 44, 4-[[5-amino-1-[(2E)-3-(2,6-difluorophenyl)-1-oxo-2-propenyl]-1H-1,2,4-triazol-3-yl]amino]-benzenesulfonamide]: the negative-log IC50 (pIC50) in assay [1] is 6.28; in assay [2], 5.57.

In the case of `Nc1nc(Nc2ccc(S(N)(=O)=O)cc2)nn1C(=O)C1CCCCCC1` [Cpd 45, 4-[[5-amino-1-(cycloheptylcarbonyl)-1H-1,2,4-triazol-3-yl]amino]-benzenesulfonamide], the negative logarithm of the IC50 (pIC50) in assay [1] was 7.86; in assay [2], 6.45.

With `CC1CCC(C(=O)n2nc(Nc3ccc(S(N)(=O)=O)cc3)nc2N)CC1` (stereo not drawn) [Cpd 46, 4-[[5-amino-1-[(4-methylcyclohexyl)carbonyl]-1H-1,2,4-triazol-3-yl]amino]-benzenesulfonamide], the negative-log IC50 (pIC50) in assay [1] was 7.45; in assay [2], 6.34.

Take `CC1CCCCC1C(=O)n1nc(Nc2ccc(S(N)(=O)=O)cc2)nc1N` (stereo not drawn) [Cpd 47, 4-[[5-amino-1-[(2-methylcyclohexyl)carbonyl]-1H-1,2,4-triazol-3-yl]amino]-benzenesulfonamide]: the negative logarithm of the IC50 (pIC50) was 7.23 in assay [1] and 5.60 in assay [2].

With `CCCCC1CCC(C(=O)n2nc(Nc3ccc(S(N)(=O)=O)cc3)nc2N)CC1` (stereo not drawn) [Cpd 48, 4-[[5-amino-1-[(4-butylcyclohexyl)carbonyl]-1H-1,2,4-triazol-3-yl]amino]-benzenesulfonamide], the negative-log IC50 (pIC50) is 5.58 in assay [1] and approximately 4.00 in assay [2].

With `Nc1nc(Nc2ccc(S(N)(=O)=O)cc2)nn1C(=O)c1ccc(-c2ccccn2)s1` [Cpd 49, 4-[[5-amino-1-[[5-(2-pyridinyl)-2-thienyl]carbonyl]-1H-1,2,4-triazol-3-yl]amino]-benzenesulfonamide], the pIC50 in assay [1], in assay [2] and in assay [3] was less than 6.00 throughout.

As to `Nc1nc(Nc2ccc(S(N)(=O)=O)cc2)nn1C(=O)c1sccc1-n1cccc1` [Cpd 50, 4-[[5-amino-1-[[3-(1H-pyrrol-1-yl)-2-thienyl]carbonyl]-1H-1,2,4-triazol-3-yl]amino]-benzenesulfonamide], the pIC50 in assay [1] was 6.92; in assay [2] it was 6.72; in assay [3], 6.70.

On to `CC(C)(C)OC(=O)/C=C/c1ccc(C(=O)n2nc(Nc3ccc(S(N)(=O)=O)cc3)nc2N)s1` [Cpd 52, 3-[5-[[5-amino-3-[[4-(aminosulfonyl)phenyl]amino]-1H-1,2,4-triazol-1-yl]carbonyl]-2-thienyl]-(2E)-2-propenoic acid-1,1-dimethylethyl ester], for which the values for the negative-log IC50 (pIC50) in assay [1], in assay [2] and in assay [3] were 7.46, 6.96 and 5.83, respectively.

Take `Nc1nc(Nc2ccc(S(N)(=O)=O)cc2)nn1S(=O)(=O)c1c(F)cccc1F` [Cpd 68, 4-[[5-amino-1-[(2,6-difluorophenyl)sulfonyl]-1H-1,2,4-triazol-3-yl]amino]-benzenesulfonamide]: the results for the pIC50 in assay [1] and in assay [2] were 6.18 and 5.29, respectively.

For the compound `Nc1nc(Nc2ccc(S(N)(=O)=O)cc2)n(C(=O)c2c(F)cccc2F)n1` [Cpd 122, 4-[[3-amino-1-(2,6-difluorobenzoyl)-1H-1,2,4-triazol-5-yl]amino]-benzenesulfonamide], the negative logarithm of the IC50 (pIC50) in assay [1] was 5.66; in assay [2], less than 5.00.
